Measured values: patent US20240279220A1, “INDOLE COMPOUNDS AND METHODS OF USE” (Genzyme Corporation, priority 2021, published 2024)

Key:
[1] = test system: NBD1/3D; experiment: Aggregation analysis using differential static light scattering (DSLS), NBD1 thermal stability; assay type: binding, Human; conditions: ΔTagg versus DMSO control; compound at 100 μM
How it was run: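 Thermal stabilisation reported as ΔTagg, i.e. aggregation temperature relative to averaged DMSO wells. Tagg came from the inflection of differential static light scattering imaged 25–70 °C while NBD1 (0.2 mg/ml, Tris pH 7.6 buffer containing ATP, MgCl2, DTT, glycerol) was ramped 1 °C/min.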

[2] = target: T1, CFTR (Homo sapiens, UniProt P13569, DEL508-508); experiment: TECC24 recording of CFTR-mediated transepithelial chloride transport in ΔF508 homozygous CF-HBE cells; assay type: cell-based; conditions: 10 μM test agent, 48 hours incubation, AUC of forskolin-stimulated IEQ divided by vehicle AUC, primary CF-HBE cells
T1 construct: Primary human bronchial epithelial cells from a ΔF508 homozygous CF donor; host or cells: primary human bronchial epithelial cells (CF-HBE), ΔF508 homozygous donor
T1 sequence (P13569 with tags, fused parts or gaps DEL508-508): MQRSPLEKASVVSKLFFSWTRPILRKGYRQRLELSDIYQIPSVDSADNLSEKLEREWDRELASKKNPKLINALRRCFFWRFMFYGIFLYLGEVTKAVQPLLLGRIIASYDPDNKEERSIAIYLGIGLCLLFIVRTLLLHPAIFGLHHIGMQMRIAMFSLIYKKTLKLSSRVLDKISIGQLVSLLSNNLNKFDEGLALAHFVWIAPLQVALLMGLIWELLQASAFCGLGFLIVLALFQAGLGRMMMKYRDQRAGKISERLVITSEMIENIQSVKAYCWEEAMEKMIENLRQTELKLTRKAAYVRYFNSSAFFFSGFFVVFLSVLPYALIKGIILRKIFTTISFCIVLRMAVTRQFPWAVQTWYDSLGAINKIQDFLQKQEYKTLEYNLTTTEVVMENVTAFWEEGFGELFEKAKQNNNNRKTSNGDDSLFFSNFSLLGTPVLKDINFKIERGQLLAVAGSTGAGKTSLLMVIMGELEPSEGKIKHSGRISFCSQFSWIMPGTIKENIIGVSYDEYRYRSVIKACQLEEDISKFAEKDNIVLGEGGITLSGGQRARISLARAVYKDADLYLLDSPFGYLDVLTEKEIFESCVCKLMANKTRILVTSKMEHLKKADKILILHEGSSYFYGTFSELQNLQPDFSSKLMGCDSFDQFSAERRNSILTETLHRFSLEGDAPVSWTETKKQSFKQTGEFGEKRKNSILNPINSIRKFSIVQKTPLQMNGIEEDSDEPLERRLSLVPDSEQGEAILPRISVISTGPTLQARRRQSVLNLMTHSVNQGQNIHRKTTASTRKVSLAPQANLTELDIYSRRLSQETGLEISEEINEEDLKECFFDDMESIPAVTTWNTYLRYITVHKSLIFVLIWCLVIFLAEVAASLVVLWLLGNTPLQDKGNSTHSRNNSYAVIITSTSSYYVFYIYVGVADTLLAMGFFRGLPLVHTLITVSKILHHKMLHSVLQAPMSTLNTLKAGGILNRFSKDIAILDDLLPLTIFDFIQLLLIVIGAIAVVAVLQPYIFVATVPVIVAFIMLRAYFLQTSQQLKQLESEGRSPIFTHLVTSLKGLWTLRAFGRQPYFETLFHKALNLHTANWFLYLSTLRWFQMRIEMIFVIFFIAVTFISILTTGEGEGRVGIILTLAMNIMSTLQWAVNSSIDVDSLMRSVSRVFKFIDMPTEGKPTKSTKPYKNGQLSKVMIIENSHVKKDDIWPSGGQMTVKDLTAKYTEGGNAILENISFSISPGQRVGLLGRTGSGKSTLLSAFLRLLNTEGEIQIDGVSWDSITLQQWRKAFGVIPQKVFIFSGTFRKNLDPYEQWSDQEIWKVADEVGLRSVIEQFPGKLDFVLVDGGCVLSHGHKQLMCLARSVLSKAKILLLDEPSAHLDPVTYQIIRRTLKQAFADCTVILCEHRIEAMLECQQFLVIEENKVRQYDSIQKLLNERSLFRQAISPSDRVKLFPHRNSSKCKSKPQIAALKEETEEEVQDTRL
Description: The effects of a test agent on CFTR-mediated transepithelial chloride transport was measured using TECC24 recording analysis. Test agents were solubilized in DMSO. Solubilized test agents were mixed with incubation medium containing DMEM/F12, Ultroser G (2%; Crescent Chemical, catalog #67042), Hyclone Fetal Clone II (2%; GE Healthcare, catalog #SH30066.02), bovine brain extract (0.25%; Lonza, catalog #CC-4098), insulin (2.5 μg/mL), IL-13 (10 ng/mL), hydrocortisone (20 nM), transferrin (2.5 μg/mL), triiodothyronine (500 nM), ethanolamine (250 nM), epinephrine (1.5 μM), phosphoethanolamine (250 nM), and retinoic acid (10 nM). Primary human bronchial epithelial cells from a ΔF508 homozygous CF donor (CF-HBE cells; from University of North Carolina Cystic Fibrosis Tissue Procurement Center), grown on Transwell HTS 24-well cell culture inserts (Costar, catalog #3378), were exposed to test agents or controls dissolved in incubation medium. The CF-HBE cells were cultured at 36.5° C. for 48 hours before TECC24 recordings were performed in the presence or absence of test agent, a positive control or vehicle (DMSO).
Following incubation, the transwell cell culture inserts containing the test agent or control-treated CF-HBE cells were loaded onto a TECC24 apparatus (TECC v7 or MTECC v2; EP Design) to record the transepithelial voltage (VT) and resistance (TEER) using 4 AgCl electrodes per well configured in current-clamp mode. The apical and basolateral bath solutions both contained (in mM) 140 NaCl, 5 KCl, 2 CaCl2, 1 MgCl2, 10 Hepes, and 10 glucose (adjusted to pH 7.4 with NaOH). To inhibit basal Na+ absorption, the ENaC inhibitor benzamil (10 μM) was added to the bath. Then, the adenylate cyclase activator, forskolin (10 μM), was added to the bath to activate CFTR. The forskolin-stimulated Cl— transport was halted by addition of CFTR inhibitor-172 (20 μM) to the bath at the end of the experiment to confirm specificity. VT and TEER recordings were digitally acquired at routine intervals using TECC or MTECC software (EP Design). VT and TEER were transformed into equivalent transpeithelial Cl— current (IEQ), and the Area Under the Curve (AUC) of the IEQ timecourse between forskolin and CFTR inhibitor-172 addition is generated using Excel (Microsoft). Efficacy is expressed as the ratio of the test agent AUC divided by vehicle AUC. EC50s based on AUC are generated using the non-linear regression log(agonist) vs. response function in Prism software (Graphpad) with HillSlope fixed=1.
If a test agent increased the AUC of the forskolin-stimulated IEQ relative to vehicle in CF-HBE cells, and this increase was inhibited by CFTR inhibitor-172, then the test agent was considered a CFTR corrector.

CC(C)OCCOCCC(c1cnc(-c2cc(Oc3c(F)cc4[nH]ccc4c3F)ccc2F)[nH]1)c1cccc(CCC(=O)O)c1F (single isomer, unassigned) [Example 130B, 3-(3-(1-(2-(5-((4,6-difluoro-1H-indol-5-yl)oxy)-2-fluorophenyl)-1H-imidazol-5-yl)-3-(2-isopropoxyethoxy)propyl)-2-fluorophenyl)propanoic acid] was tested, and the “DSLS NBD1/3D Human Stability delta-T (° C.) @ 100 (μM)” value (“DSLS NBD1/3D Human Stability delta-T” for short) [1] was “A (A: T ≥ 10° C.)” and the “TECC24 @ 10 μM over DMSO (AUC fold over DMSO)” value [2] was “A (“A” refers to AUC @10 uM >= 12)”.
In the case of Cc1c(Oc2ccc(F)c(-c3ncc([C@H](C)c4cccc([C@@H]5C[C@H]5C(=O)O)c4F)[nH]3)c2)c(F)cc2[nH]ccc12 (single isomer, unassigned) [Example 139F, trans-2-(2-fluoro-3-(1-(2-(2-fluoro-5-((6-fluoro-4-methyl-1H-indol-5-yl)oxy)phenyl)-1H-imidazol-5-yl)ethyl)phenyl)cyclopropane-1-carboxylic acid], the “DSLS NBD1/3D Human Stability delta-T” value [1] is reported as “A (A: T ≥ 10° C.)” and the “TECC24 @ 10 μM over DMSO (AUC fold over DMSO)” value [2] is reported as “B (“B” refers to AUC @10 uM between 4-12)”.
With CC(C)(O)c1nc(-c2cc(Oc3c(F)cc4[nH]ccc4c3F)ccc2F)[nH]c1Cc1cccc(CCC(=O)O)c1F [Example 280, 3-(3-((2-(5-((4,6-Difluoro-1H-indol-5-yl)oxy)-2-fluorophenyl)-4-(2-hydroxypropan-2-yl)-1H-imidazol-5-yl)methyl)-2-fluorophenyl)propanoic acid] the “DSLS NBD1/3D Human Stability delta-T” value [1] was “B (B: 5-10° C.)” and the “TECC24 @ 10 μM over DMSO (AUC fold over DMSO)” value [2] was “A (“A” refers to AUC @10 uM >= 12)”.
In the case of C[C@H]1C[C@](c2cccc(CCC(=O)O)c2)(c2c[nH]c(-c3cc(Oc4c(F)cc5[nH]ccc5c4F)ccc3F)n2)CCO1 (racemic) [Example 155, 3-(3-((2S)-4-(2-(5-((4,6-difluoro-1H-indol-5-yl)oxy)-2-fluorophenyl)-1H-imidazol-5-yl)-2-methyltetrahydro-2H-pyran-4-yl)phenyl)propanoic acid], the “DSLS NBD1/3D Human Stability delta-T” value [1] is reported as “A (A: T ≥ 10° C.)” and the “TECC24 @ 10 μM over DMSO (AUC fold over DMSO)” value [2] is reported as “A (“A” refers to AUC @10 uM >= 12)”.
With CP(C)(=O)c1c(Oc2cccc(-c3nc(C(O)c4cccc(CCC(=O)O)c4)cs3)c2)c(F)cc2[nH]ccc12 (stereo not shown) [Example 97, 3-(3-((2-(3-((4-(Dimethylphosphoryl)-6-fluoro-1H-indol-5-yl)oxy)phenyl)thiazol-4-yl)(hydroxy)methyl)phenyl)propanoic acid] the “DSLS NBD1/3D Human Stability delta-T” value [1] was “B (B: 5-10° C.)” and the “TECC24 @ 10 μM over DMSO (AUC fold over DMSO)” value [2] was “C (“C” refers to AUC @ 10 uM <= 4)”.
Cc1c(Oc2ccc(F)c(-c3ncc(C(C)(O)c4cccc(CCC(=O)O)n4)[nH]3)c2)c(F)cc2[nH]ccc12 (stereo not shown) [Example 272, 3-(6-(1-(2-(2-fluoro-5-((6-fluoro-4-methyl-1H-indol-5-yl)oxy)phenyl)-1H-imidazol-5-yl)-1-hydroxyethyl)pyridin-2-yl)propanoic acid] was tested, and the “DSLS NBD1/3D Human Stability delta-T” value [1] was “B (B: 5-10° C.)” and the “TECC24 @ 10 μM over DMSO (AUC fold over DMSO)” value [2] was “B (“B” refers to AUC @10 uM between 4-12)”.
CCC(CC)(c1cccc(CCC(=O)O)c1)c1cnc(-c2cc(Oc3c(F)cc4[nH]ccc4c3C)ccc2F)[nH]1 [Example 159, 3-(3-(3-(2-(2-fluoro-5-((6-fluoro-4-methyl-1H-indol-5-yl)oxy)phenyl)-1H-imidazol-5-yl)pentan-3-yl)phenyl)propanoic acid] was tested, and the “DSLS NBD1/3D Human Stability delta-T” value [1] was “B (B: 5-10° C.)” and the “TECC24 @ 10 μM over DMSO (AUC fold over DMSO)” value [2] was “B (“B” refers to AUC @10 uM between 4-12)”.
With CS(=O)(=O)c1c(Oc2ccc(F)c(-c3ncc(C4(c5cccc(CCC(=O)O)c5)CCOC4)[nH]3)c2)c(F)cc2[nH]ccc12 (stereo not shown) [Example 45, 3-(3-(3-(2-(2-Fluoro-5-((6-fluoro-4-(methylsulfonyl)-1H-indol-5-yl)oxy)phenyl)-1H-imidazol-5-yl)tetrahydrofuran-3-yl)phenyl)propanoic acid] the “DSLS NBD1/3D Human Stability delta-T” value [1] was “A (A: T ≥ 10° C.)” and the “TECC24 @ 10 μM over DMSO (AUC fold over DMSO)” value [2] was “B (“B” refers to AUC @10 uM between 4-12)”.
In the case of Cc1c(Oc2ccc(F)c(-c3ncc(Cc4cccc(CCC(=O)O)c4F)[nH]3)c2)c(F)cc2[nH]ccc12 [Example 119, 3-(2-fluoro-3-((2-(2-fluoro-5-((6-fluoro-4-methyl-1H-indol-5-yl)oxy)phenyl)-1H-imidazol-5-yl)methyl)phenyl)propanoic acid], the “DSLS NBD1/3D Human Stability delta-T” value [1] is reported as “B (B: 5-10° C.)” and the “TECC24 @ 10 μM over DMSO (AUC fold over DMSO)” value [2] is reported as “C (“C” refers to AUC @ 10 uM <= 4)”.
With COC(=O)CCc1cccc(C(O)c2cnc(-c3cccc(Oc4c(F)cc5[nH]ccc5c4-c4nccs4)c3)[nH]2)c1 (stereo not shown) [Example 86, Methyl 3-(3-((2-(3-((6-fluoro-4-(thiazol-2-yl)-1H-indol-5-yl)oxy)phenyl)-1H-imidazol-5-yl)(hydroxy)methyl)phenyl)propanoate] the “DSLS NBD1/3D Human Stability delta-T” value [1] was “C (C: ≤5° C.)” and the “TECC24 @ 10 μM over DMSO (AUC fold over DMSO)” value [2] was “C (“C” refers to AUC @ 10 uM <= 4)”.
With CC(c1c[nH]c(-c2cc(Oc3c(F)cc4[nH]ccc4c3CC(F)F)ccc2F)n1)c1cccc(CCC(=O)O)c1F (single isomer, unassigned) [Example 129A, 3-(3-(1-(2-(5-((4-(2,2-difluoroethyl)-6-fluoro-1H-indol-5-yl)oxy)-2-fluorophenyl)-1H-imidazol-4-yl)ethyl)-2-fluorophenyl)propanoic acid] the “DSLS NBD1/3D Human Stability delta-T” value [1] was “A (A: T ≥ 10° C.)” and the “TECC24 @ 10 μM over DMSO (AUC fold over DMSO)” value [2] was “A (“A” refers to AUC @10 uM >= 12)”.
With [2H]c1c[nH]c2c(F)c(F)c(Oc3ccc(F)c(-c4nc(C(C#N)(c5cc(F)cc(CCC(=O)O)c5)C([2H])([2H])[2H])c[nH]4)c3)c(F)c12 (single isomer, unassigned) [Example 67B, 3-(3-(1-cyano-1-(2-(2-fluoro-5-((4,6,7-trifluoro-1H-indol-5-yl-3-d)oxy)phenyl)-1H-imidazol-4-yl)ethyl-2,2,2-d3)-5-fluorophenyl)propanoic acid] the “DSLS NBD1/3D Human Stability delta-T” value [1] was “B (B: 5-10° C.)” and the “TECC24 @ 10 μM over DMSO (AUC fold over DMSO)” value [2] was “C (“C” refers to AUC @ 10 uM <= 4)”.
CC(c1ccn(-c2cccc(Oc3c(F)cc4[nH]ccc4c3S(C)(=O)=O)c2)n1)c1cccc(CCC(=O)O)c1F (single isomer, unassigned) [Example 23B, 3-(2-fluoro-3-(1-(1-(3-((6-fluoro-4-(methylsulfonyl)-1H-indol-5-yl)oxy)phenyl)-1H-pyrazol-3-yl)ethyl)phenyl)propanoic acid] was tested, and the “DSLS NBD1/3D Human Stability delta-T” value [1] was “A (A: T ≥ 10° C.)” and the “TECC24 @ 10 μM over DMSO (AUC fold over DMSO)” value [2] was “A (“A” refers to AUC @10 uM >= 12)”.
For CC(c1cccc(CCC(=O)O)c1)(c1cnc(-c2cc(Oc3c(F)cc4[nH]ccc4c3S(C)(=O)=O)ccc2F)[nH]1)C(F)F (stereo not shown) [Example 276, 3-(3-(1,1-Difluoro-2-(2-(2-fluoro-5-((6-fluoro-4-(methylsulfonyl)-1H-indol-5-yl)oxy)phenyl)-1H-imidazol-5-yl)propan-2-yl)phenyl)propanoic acid], the “DSLS NBD1/3D Human Stability delta-T” value [1] was “A (A: T ≥ 10° C.)” and the “TECC24 @ 10 μM over DMSO (AUC fold over DMSO)” value [2] was “C (“C” refers to AUC @ 10 uM <= 4)”.
